Results published in PubChem BioAssay AID256 (DTP/NCI, 2004).
Values joined by “and” are separate entries in the source; they are usually repeats but may differ in a detail not shown here. Equal values may be shown once. Toxic doses and inconclusive results are not listed.

Test system: CD2F1 mice, L1210 leukemia ip, survival T/C
Experiment: NCI In Vivo Anticancer Drug Screen. Data for tumor model L1210 Leukemia (intraperitoneal) in CD2F1 (CDF1) mice
Details: higher = longer survival
In short: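 Compound-dosed mice with transplantable tumor versus matched vehicle controls; endpoint ratio T/C reported.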

[1] = endpoint: mean survival time, dose: 50.0 mg/kg/injection, schedule: Q01DX009 (ip), vehicle: saline with Tween-80
[2] = endpoint: mean survival time, dose: 100.0 mg/kg/injection, schedule: Q01DX009 (ip), vehicle: saline with Tween-80
[3] = endpoint: mean survival time, dose: 200.0 mg/kg/injection, schedule: Q01DX009 (ip), vehicle: saline with Tween-80
[4] = endpoint: mean survival time, dose: 100.0 mg/kg/injection, schedule: Q04DX003 (ip), vehicle: saline
[5] = endpoint: mean survival time, dose: 200.0 mg/kg/injection, schedule: Q04DX003 (ip), vehicle: saline
[6] = endpoint: mean survival time, dose: 400.0 mg/kg/injection, schedule: Q01DX009 (ip), vehicle: saline with Tween-80
[7] = endpoint: mean survival time, dose: 50.0 mg/kg/injection, schedule: Q04DX003 (ip), vehicle: saline with Tween-80
[8] = endpoint: mean survival time, dose: 100.0 mg/kg/injection, schedule: Q04DX003 (ip), vehicle: saline with Tween-80
[9] = endpoint: mean survival time, dose: 200.0 mg/kg/injection, schedule: Q04DX003 (ip), vehicle: saline with Tween-80
[10] = endpoint: mean survival time, dose: 12.5 mg/kg/injection, schedule: Q01DX009 (ip), vehicle: saline with Tween-80
[11] = endpoint: mean survival time, dose: 25.0 mg/kg/injection, schedule: Q01DX009 (ip), vehicle: saline with Tween-80

`NC(CCCCNCC(CNCCCCC(N)C(=O)O)C(=O)O)C(=O)O` (configuration not stated) was tested, and the T/C (endpoint: mean survival time, dose: 25.0 mg/kg/injection, schedule: Q04DX002 (ip), vehicle: saline with Tween-80) was 105 % of control, the T/C (endpoint: mean survival time, dose: 50.0 mg/kg/injection, schedule: Q04DX002 (ip), vehicle: saline with Tween-80) was 98 % of control and the T/C (endpoint: mean survival time, dose: 100.0 mg/kg/injection, schedule: Q04DX002 (ip), vehicle: saline with Tween-80) was 94 % of control.

In the case of `CCOC(=N)c1cn(C2OC(CO)C(O)C2O)c2nc[nH]c(=O)c12` (configuration not stated), the T/C (endpoint: mean survival time, dose: 75.0 mg/kg/injection, schedule: Q01DX001 (ip), vehicle: saline) is reported as 119 % of control.

With `CCCCNc1cc(Nc2ccc(Br)cc2)nc(N)n1` the T/C [1] was 98 % of control, the T/C [2] was 97 % of control and the T/C [3] was 98 % of control.

With `O=NN(CCF)C(=O)NC1C(O)CCCC1O` (configuration not stated) the T/C (endpoint: median survival time, dose: 1.25 mg/kg/injection, schedule: Q01DX001 (ip), vehicle: saline) was 120 % of control, the T/C (endpoint: median survival time, dose: 2.5 mg/kg/injection, schedule: Q01DX001 (ip), vehicle: saline) was 116 % of control and the T/C (endpoint: median survival time, dose: 5.0 mg/kg/injection, schedule: Q01DX001 (ip), vehicle: saline) was 160 % of control. The T/C (endpoint: median survival time, dose: 5.0 mg/kg/injection, schedule: Q04DX002 (ip), vehicle: saline) was 178 % of control, the T/C (endpoint: median survival time, dose: 10.0 mg/kg/injection, schedule: Q01DX001 (ip), vehicle: saline) was 168 % of control and the T/C (endpoint: median survival time, dose: 10.0 mg/kg/injection, schedule: Q04DX002 (ip), vehicle: saline) was 231 % of control and 232 % of control. The T/C (endpoint: median survival time, dose: 20.0 mg/kg/injection, schedule: Q01DX001 (ip), vehicle: saline) was 337 % of control, the T/C (endpoint: median survival time, dose: 20.0 mg/kg/injection, schedule: Q04DX002 (ip), vehicle: saline) was 361 % of control and 365 % of control and the T/C (endpoint: median survival time, dose: 40.0 mg/kg/injection, schedule: Q01DX001 (ip), vehicle: saline) was 337 % of control. The T/C (endpoint: median survival time, dose: 40.0 mg/kg/injection, schedule: Q04DX002 (ip), vehicle: saline) was 182 % of control and 361 % of control.

For `CCOCCc1ccncc1`, the T/C [4] was 101 % of control and the T/C [5] was 104 % of control.

For `Clc1ncnc2c1ncn2CCCn1cnc2c(Cl)ncnc21`, the T/C (endpoint: mean survival time, dose: 12.5 mg/kg/injection, schedule: Q01DX009 (ip), vehicle: Klucel (hydroxypropylcellulose) (HPC)) was 94 % of control, the T/C (endpoint: mean survival time, dose: 25.0 mg/kg/injection, schedule: Q01DX009 (ip), vehicle: Klucel (hydroxypropylcellulose) (HPC)) was 90 % of control and the T/C (endpoint: mean survival time, dose: 50.0 mg/kg/injection, schedule: Q01DX009 (ip), vehicle: Klucel (hydroxypropylcellulose) (HPC)) was 94 % of control. For the same compound, the T/C (endpoint: mean survival time, dose: 100.0 mg/kg/injection, schedule: Q01DX009 (ip), vehicle: Klucel (hydroxypropylcellulose) (HPC)) was 103 % of control and the T/C (endpoint: mean survival time, dose: 200.0 mg/kg/injection, schedule: Q01DX009 (ip), vehicle: Klucel (hydroxypropylcellulose) (HPC)) was 101 % of control.

For `Cc1ccc(S(=O)(=O)N/N=C2\CC3CCC2C3)cc1` (configuration not stated), the T/C [2] was 90 % of control and 105 % of control, the T/C [3] was 96 % of control and 100 % of control and the T/C [6] was 93 % of control and 96 % of control.

With `CC1(C)N=C(N)N=C(N)N1c1cccc(/C=C/c2ccc([N+](=O)[O-])cc2)c1` the T/C (endpoint: mean survival time, dose: 100.0 mg/kg/injection, schedule: Q04DX002 (ip), vehicle: Klucel (hydroxypropylcellulose) (HPC)) was 103 % of control, the T/C (endpoint: mean survival time, dose: 200.0 mg/kg/injection, schedule: Q04DX002 (ip), vehicle: Klucel (hydroxypropylcellulose) (HPC)) was 107 % of control and the T/C (endpoint: mean survival time, dose: 400.0 mg/kg/injection, schedule: Q04DX002 (ip), vehicle: Klucel (hydroxypropylcellulose) (HPC)) was 95 % of control.

`CC(CC(=O)c1ccccc1)=Nc1ccccc1.CC(CC(=O)c1ccccc1)=Nc1ccccc1.[O]=[V]` was tested, and the T/C (endpoint: mean survival time, dose: 50.0 mg/kg/injection, schedule: Q01DX001 (ip), vehicle: Klucel (hydroxypropylcellulose) (HPC)) was 96 % of control, the T/C (endpoint: mean survival time, dose: 100.0 mg/kg/injection, schedule: Q01DX001 (ip), vehicle: Klucel (hydroxypropylcellulose) (HPC)) was 88 % of control and the T/C (endpoint: mean survival time, dose: 200.0 mg/kg/injection, schedule: Q01DX001 (ip), vehicle: Klucel (hydroxypropylcellulose) (HPC)) was 94 % of control. The T/C (endpoint: mean survival time, dose: 400.0 mg/kg/injection, schedule: Q01DX001 (ip), vehicle: Klucel (hydroxypropylcellulose) (HPC)) was 93 % of control and the T/C (endpoint: mean survival time, dose: 800.0 mg/kg/injection, schedule: Q01DX001 (ip), vehicle: Klucel (hydroxypropylcellulose) (HPC)) was 90 % of control.

`Nc1ncc(C2OC(CO)C(O)C2O)c(=O)[nH]1` (configuration not stated) was tested, and the T/C (endpoint: median survival time, dose: 64.0 mg/kg/injection, schedule: Q01DX005 (ip), vehicle: saline) was 160 % of control, the T/C (endpoint: median survival time, dose: 128.0 mg/kg/injection, schedule: Q01DX005 (ip), vehicle: saline) was 162 % of control and 243 % of control and the T/C (endpoint: median survival time, dose: 256.0 mg/kg/injection, schedule: Q01DX005 (ip), vehicle: saline) was 94 % of control.

With `CC(C)C(NC1=NCCO1)c1ccccc1` (configuration not stated) the T/C (endpoint: mean survival time, dose: 12.5 mg/kg/injection, schedule: Q04DX003 (ip), vehicle: saline with Tween-80) was 106 % of control, the T/C (endpoint: mean survival time, dose: 25.0 mg/kg/injection, schedule: Q04DX003 (ip), vehicle: saline with Tween-80) was 98 % of control and the T/C [7] was 104 % of control.

With `O=C(Nc1cc([N+](=O)[O-])ccc1F)N(CCO)C1CCCCC1` the T/C [2] was 98 % of control, the T/C [3] was 98 % of control and the T/C [6] was 103 % of control.

For `CC(C)C(=O)OCCOC(=O)C(C)C`, the T/C [4] was 100 % of control, the T/C [5] was 97 % of control and the T/C (endpoint: mean survival time, dose: 400.0 mg/kg/injection, schedule: Q04DX003 (ip), vehicle: saline) was 96 % of control.

`O=C1[C@H]2CCC[C@H]2[C@H]2CCC[C@@H]12` was tested, and the T/C (endpoint: median survival time, dose: 6.25 mg/kg/injection, schedule: Q01DX009 (ip), vehicle: saline with Tween-80) was 98 % of control, the T/C (endpoint: median survival time, dose: 12.5 mg/kg/injection, schedule: Q01DX009 (ip), vehicle: saline with Tween-80) was 106 % of control and the T/C (endpoint: median survival time, dose: 25.0 mg/kg/injection, schedule: Q01DX009 (ip), vehicle: saline with Tween-80) was 98 % of control. The T/C (endpoint: median survival time, dose: 50.0 mg/kg/injection, schedule: Q01DX009 (ip), vehicle: saline with Tween-80) was 101 % of control, the T/C (endpoint: median survival time, dose: 100.0 mg/kg/injection, schedule: Q01DX009 (ip), vehicle: saline with Tween-80) was 106 % of control and the T/C (endpoint: median survival time, dose: 200.0 mg/kg/injection, schedule: Q01DX009 (ip), vehicle: saline with Tween-80) was 97 % of control.

With `COc1ccc([Si](F)(c2ccc(OC)cc2)c2ccc(OC)cc2)cc1` the T/C [2] was 100 % of control, the T/C [8] was 95 % of control and the T/C [3] was 94 % of control. The T/C [9] was 93 % of control, the T/C [6] was 93 % of control and the T/C (endpoint: mean survival time, dose: 400.0 mg/kg/injection, schedule: Q04DX003 (ip), vehicle: saline with Tween-80) was 90 % of control.

`O=N[O-].[Co].[N-]=C=S.[NH2-].[NH2-].[NH2-].[NH2-]` was tested, and the T/C [10] was 115 % of control and the T/C [11] was 115 % of control.

For `CCN(CC)CC(O)CNc1ncnc(N)c1C(=C(C)C)c1ccc(Cl)cc1` (configuration not stated), the T/C [11] was 101 % of control, the T/C [1] was 97 % of control and the T/C [2] was 97 % of control. The T/C [8] was 101 % of control.

With `F[Si](c1ccccc1)(c1cccc2ccccc12)c1cccc2ccccc12` the T/C [2] was 96 % of control, the T/C [3] was 100 % of control and the T/C [6] was 95 % of control.

In the case of `COc1ccc(Cc2nnc(Cc3ccc(OC)c(OC)c3)nn2)cc1OC`, the T/C [8] is reported as 101 % of control and the T/C [9] is reported as 93 % of control.

In the case of `CC(=O)CC(C)=O.CC(=O)CC(C)=O.O.O.[Co]`, the T/C (endpoint: mean survival time, dose: 22.0 mg/kg/injection, schedule: Q04DX003 (ip), vehicle: saline with Tween-80) is reported as 111 % of control, the T/C (endpoint: mean survival time, dose: 22.0 mg/kg/injection, schedule: Q04DX003 (ip), vehicle: saline) is reported as 97 % of control and the T/C (endpoint: mean survival time, dose: 33.0 mg/kg/injection, schedule: Q04DX003 (ip), vehicle: saline with Tween-80) is reported as 114 % of control. For the same compound, the T/C (endpoint: mean survival time, dose: 33.0 mg/kg/injection, schedule: Q04DX003 (ip), vehicle: saline) was 102 % of control, the T/C [7] was 109 % of control and the T/C (endpoint: mean survival time, dose: 50.0 mg/kg/injection, schedule: Q04DX003 (ip), vehicle: saline) was 108 % of control.

`CC(CCOP(=O)(N(C)C)N(CCCl)CCCl)OCc1ccccc1` (configuration not stated) was tested, and the T/C (endpoint: mean survival time, dose: 25.0 mg/kg/injection, schedule: Q01DX001 (ip), vehicle: other) was 101 % of control, the T/C (endpoint: mean survival time, dose: 50.0 mg/kg/injection, schedule: Q01DX001 (ip), vehicle: other) was 102 % of control and the T/C (endpoint: mean survival time, dose: 100.0 mg/kg/injection, schedule: Q01DX001 (ip), vehicle: other) was 98 % of control. For the same compound, the T/C (endpoint: mean survival time, dose: 200.0 mg/kg/injection, schedule: Q01DX001 (ip), vehicle: other) was 87 % of control and the T/C (endpoint: mean survival time, dose: 400.0 mg/kg/injection, schedule: Q01DX001 (ip), vehicle: other) was 95 % of control.

With `CCOC(=O)NC(C)(C)CN(C(=O)OCC)c1ccccc1` the T/C [2] was 98 % of control, the T/C [3] was 124 % of control and the T/C [6] was 95 % of control.

With `CSc1ccccc1C(=O)OC(C)(C)C` the T/C (endpoint: mean survival time, dose: 100.0 mg/kg/injection, schedule: Q01DX001 (ip), vehicle: saline with Tween-80) was 96 % of control, the T/C (endpoint: mean survival time, dose: 200.0 mg/kg/injection, schedule: Q01DX001 (ip), vehicle: saline with Tween-80) was 103 % of control and the T/C (endpoint: mean survival time, dose: 400.0 mg/kg/injection, schedule: Q01DX001 (ip), vehicle: saline with Tween-80) was 103 % of control.

`COc1cc(OC)c(NC(=O)Oc2ccc(SC)cc2)cc1Cl` was tested, and the T/C [10] was 94 % of control, the T/C [11] was 97 % of control and the T/C [1] was 97 % of control. The T/C [2] was 88 % of control and the T/C [3] was 92 % of control.
